Legend:
[1] = target: T1, mouse Siglec-2-Fc-Avi (CD22) (Mus musculus, UniProt P35329); assay: SPR binding affinity to mouse CD22; details: steady-state analysis
T1 construct: made in house
T1 sequence (P35329 22-708 limits assumed): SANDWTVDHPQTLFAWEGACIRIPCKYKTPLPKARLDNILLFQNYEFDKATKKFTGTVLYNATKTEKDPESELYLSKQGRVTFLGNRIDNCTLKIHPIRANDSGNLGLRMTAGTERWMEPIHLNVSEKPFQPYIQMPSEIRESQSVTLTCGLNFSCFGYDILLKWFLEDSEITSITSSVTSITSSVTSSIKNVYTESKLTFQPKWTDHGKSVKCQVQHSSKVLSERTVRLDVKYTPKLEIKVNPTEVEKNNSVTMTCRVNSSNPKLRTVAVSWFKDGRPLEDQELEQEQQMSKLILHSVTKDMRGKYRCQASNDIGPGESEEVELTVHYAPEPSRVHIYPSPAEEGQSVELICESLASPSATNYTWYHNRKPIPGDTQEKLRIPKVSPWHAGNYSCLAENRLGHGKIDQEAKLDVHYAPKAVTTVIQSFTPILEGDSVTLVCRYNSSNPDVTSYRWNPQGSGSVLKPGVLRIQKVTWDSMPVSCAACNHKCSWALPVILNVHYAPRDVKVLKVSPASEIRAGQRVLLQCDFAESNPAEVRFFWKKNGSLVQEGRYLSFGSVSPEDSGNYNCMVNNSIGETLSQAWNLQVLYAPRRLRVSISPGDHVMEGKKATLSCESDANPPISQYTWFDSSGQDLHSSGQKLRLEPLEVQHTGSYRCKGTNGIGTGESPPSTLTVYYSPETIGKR
In short: (§1)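 Steady-state fits gave the affinities. Before capture on a streptavidin surface, biotinylated CD22 had native sialic acids stripped (SialoExo, 4 hours, 37° C.). Running buffer: 10 mM HEPES pH 7.5, 150 mM NaCl, 0.05% Tween-20, 1% DMSO, with DMSO solvent correction.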

[2] = target: T2, human Siglec-2/CD22 protein (Homo sapiens, UniProt P20273); assay: SPR binding affinity to human CD22; details: steady-state analysis
T2 construct: purchased Acro Biosystems SI2-H82E3
T2 sequence (P20273 20-847): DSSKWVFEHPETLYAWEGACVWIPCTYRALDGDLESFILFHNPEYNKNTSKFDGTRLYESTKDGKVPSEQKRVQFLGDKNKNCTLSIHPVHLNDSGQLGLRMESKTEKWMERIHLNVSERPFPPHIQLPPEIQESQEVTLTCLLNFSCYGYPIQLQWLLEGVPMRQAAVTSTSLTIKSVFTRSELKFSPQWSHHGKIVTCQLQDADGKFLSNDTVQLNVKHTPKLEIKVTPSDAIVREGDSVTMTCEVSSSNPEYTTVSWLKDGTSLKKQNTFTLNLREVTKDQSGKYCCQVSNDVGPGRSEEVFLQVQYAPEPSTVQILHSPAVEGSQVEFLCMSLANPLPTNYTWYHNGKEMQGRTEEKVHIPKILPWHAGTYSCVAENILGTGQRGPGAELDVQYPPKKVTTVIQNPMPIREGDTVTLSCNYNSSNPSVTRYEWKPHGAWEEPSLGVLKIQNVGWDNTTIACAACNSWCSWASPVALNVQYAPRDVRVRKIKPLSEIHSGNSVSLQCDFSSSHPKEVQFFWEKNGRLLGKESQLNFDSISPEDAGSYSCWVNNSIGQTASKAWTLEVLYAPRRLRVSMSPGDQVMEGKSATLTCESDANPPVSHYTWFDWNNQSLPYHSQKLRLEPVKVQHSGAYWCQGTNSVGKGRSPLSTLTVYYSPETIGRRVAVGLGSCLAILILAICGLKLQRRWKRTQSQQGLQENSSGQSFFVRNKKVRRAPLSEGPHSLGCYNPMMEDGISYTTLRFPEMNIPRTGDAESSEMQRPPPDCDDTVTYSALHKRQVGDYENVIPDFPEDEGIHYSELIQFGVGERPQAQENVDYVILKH
In short: as §1

cynomolgus Siglec-2/CD22 = cynomolgus Siglec-2/CD22 (Macaca fascicularis, UniProt A0A2K5WCZ6); assay: biochemical; assay type: binding; details: SPR, steady-state analysis; read-out: Affinity cyno CD22
cynomolgus Siglec-2/CD22, sequence (A0A2K5WCZ6 entry or part of it): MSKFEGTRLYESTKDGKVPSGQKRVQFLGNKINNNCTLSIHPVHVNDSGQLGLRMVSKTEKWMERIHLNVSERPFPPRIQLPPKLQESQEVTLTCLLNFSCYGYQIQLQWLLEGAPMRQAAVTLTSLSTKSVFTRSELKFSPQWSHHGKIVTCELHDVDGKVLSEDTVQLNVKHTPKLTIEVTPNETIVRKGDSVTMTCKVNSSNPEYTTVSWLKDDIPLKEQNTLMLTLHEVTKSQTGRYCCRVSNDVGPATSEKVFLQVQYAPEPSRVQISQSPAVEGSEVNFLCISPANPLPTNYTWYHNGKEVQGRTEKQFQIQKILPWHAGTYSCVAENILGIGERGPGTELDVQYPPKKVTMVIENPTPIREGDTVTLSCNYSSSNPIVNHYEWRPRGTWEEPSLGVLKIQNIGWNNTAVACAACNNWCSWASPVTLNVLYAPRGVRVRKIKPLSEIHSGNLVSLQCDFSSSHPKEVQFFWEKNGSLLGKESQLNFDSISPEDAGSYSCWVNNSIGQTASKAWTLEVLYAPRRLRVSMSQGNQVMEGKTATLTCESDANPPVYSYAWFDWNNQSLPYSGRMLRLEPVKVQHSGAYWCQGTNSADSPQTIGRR
In short: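 Compound binding measured by steady-state SPR analysis, 120 s dissociation, in HEPES-NaCl-Tween buffer pH 7.5 containing 1% DMSO, DMSO solvent-corrected. Surface: cyno CD22, sialic acids first stripped by SialoExo for 4 h at 37° C., then amine-coupled onto CM5.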

| SMILES | Kd [1] [µM] | Kd [2] [µM] | Kd (cynomolgus Siglec-2/CD22) [µM] |
| --- | --- | --- | --- |
| C#CCOCCCCCCC(O)[C@]1(C(=O)O)C[C@H](O)[C@@H](NC(=O)CO)[C@H]([C@H](O)[C@H](O)CNC(=O)Cc2ccc(Cl)cc2)O1 (stereo partly drawn) [Compound 103, (2S,4S,5R,6R)-6-((1R,2R)-3-(2-(4-chlorophenyl)acetamido)-1,2-dihydroxypropyl)-4-hydroxy-2-(1-hydroxy-7-(prop-2-yn-1-yloxy)heptyl)-5-(2-hydroxyacetamido)tetrahydro-2H-pyran-2-carboxylic acid] | 1 to 10 | < 1 | < 1 |
| C#CCOCCOCCO[C@]1(C(=O)O)C[C@H](O)[C@@H](NC(=O)CO)[C@H]([C@H](O)[C@H](O)CNC(=O)c2ccccc2O)O1 [Compound 28, (2R,4S,5R,6R)-6-((1R,2R)-1,2-dihydroxy-3-(2-hydroxybenzamido)propyl)-4-hydroxy-5-(2-hydroxyacetamido)-2-(2-(2-(prop-2-yn-1-yloxy)ethoxy)ethoxy)tetrahydro-2H-pyran-2-carboxylic acid] | > 10 | > 10 | > 10 |
| C#CCOCCOCCO[C@]1(C(=O)O)C[C@H](O)[C@@H](NC(=O)CNC(C)=O)[C@H]([C@H](O)[C@H](O)CNC(=O)Cc2ccc(-c3ccc(O)cc3)cc2)O1 [Compound 57, (2R,4S,5R,6R)-5-(2-acetamidoacetamido)-6-((1R,2R)-1,2-dihydroxy-3-(2-(4′-hydroxy-[1,1′-biphenyl]-4-yl)acetamido)propyl)-4-hydroxy-2-(2-(2-(prop-2-yn-1-yloxy)ethoxy)ethoxy)tetrahydro-2H-pyran-2-carboxylic acid] | > 10 | 1 to 10 | 1 to 10 |
| C#CCCOc1ccc(CO[C@]2(C(=O)O)C[C@H](O)[C@@H](NC(C)=O)[C@H]([C@H](O)[C@H](O)CNC(=O)c3cccc(Oc4ccccc4)c3)O2)cc1 [Compound 22, (2R,4S,5R,6R)-5-acetamido-2-((4-(but-3-yn-1-yloxy)benzyl)oxy)-6-((1R,2R)-1,2-dihydroxy-3-(3-phenoxybenzamido)propyl)-4-hydroxytetrahydro-2H-pyran-2-carboxylic acid] | > 10 | < 1 | 1 to 10 |

Other lines, results leading:

| Kd [1] [µM] | Kd [2] [µM] | Kd (cynomolgus Siglec-2/CD22) [µM] | SMILES |
| --- | --- | --- | --- |
| 1 to 10 | < 1 | < 1 | C#CCCCCCCO[C@]1(C(=O)O)C[C@H](O)[C@@H](NC(=O)CO)[C@H]([C@H](O)[C@H](O)CNC(=O)c2ccc(Cl)cc2)O1 [Cpd. 267, (2R,4S,5R,6R)-6-((1R,2R)-3-(4-chlorobenzamido)-1,2-dihydroxypropyl)-4-hydroxy-5-(2-hydroxyacetamido)-2-(oct-7-yn-1-yloxy) tetrahydro-2H-pyran-2-carboxylic acid] |
| > 10 | > 10 | > 10 | NCC(O)CO[C@]1(C(=O)O)C[C@H](O)[C@@H](NC(=O)CO)[C@H]([C@H](O)[C@H](O)CNC(=O)Cc2ccc(Cl)cc2)O1 (stereo partly drawn) [Compound 104, (2R,4S,5R,6R)-2-(3-amino-2-hydroxypropoxy)-6-((1R,2R)-3-(2-(4-chlorophenyl)acetamido)-1,2-dihydroxypropyl)-4-hydroxy-5-(2-hydroxyacetamido)tetrahydro-2H-pyran-2-carboxylic acid] |
| 1 to 10 | 1 to 10 | 1 to 10 | C#CCCCCCCc1cn([C@]2(C(=O)O)C[C@H](O)[C@@H](NC(=O)CO)[C@H]([C@H](O)[C@H](O)CNC(=O)Cc3ccc(Cl)cc3)O2)nn1 [Compound 119, (2R,4S,5R,6R)-6-((1R,2R)-3-(2-(4-chlorophenyl)acetamido)-1,2-dihydroxypropyl)-4-hydroxy-5-(2-hydroxyacetamido)-2-(4-(oct-7-yn-1-yl)-1H-1,2,3-triazol-1-yl)tetrahydro-2H-pyran-2-carboxylic acid] |
| 1 to 10 | < 1 | < 1 | O=C(Cc1ccc(Cl)cc1)NC[C@@H](O)[C@@H](O)[C@@H]1O[C@@](OCC2CCOCC2)(C(=O)O)C[C@H](O)[C@H]1NC(=O)CO [Compound 106, (2R,4S,5R,6R)-6-((1R,2R)-3-(2-(4-chlorophenyl)acetamido)-1,2-dihydroxypropyl)-4-hydroxy-5-(2-hydroxyacetamido)-2-((tetrahydro-2H-pyran-4-yl)methoxy)tetrahydro-2H-pyran-2-carboxylic acid] |

Source: US20250064941A1, “SIGLEC LIGANDS, CONJUGATES, AND METHODS OF USE THEREOF” (Osprey Biopharmaceuticals, Inc., priority 2023, published 2025)
